Key:
NUGC = assay: Cytotoxicity against human NUGC cells at 50 uM; type: functional
[1] = Cytotoxicity against human HONE1 cells at 50 uM; type: functional

C=CCc1ccc(O)c(O)c1 [HYDROXYCHAVICOL]
inhibition at 50 µM (NUGC): 96%

C=C1CC[C@@]2(OC1)O[C@H]1C[C@H]3[C@@H]4CC=C5C[C@H](O)C[C@@H](O)[C@]5(C)[C@H]4CC[C@]3(C)[C@H]1[C@@H]2C
inhibition at 50 µM [1]: 45%

C=C1CC[C@@]2(OC1)O[C@H]1C[C@H]3[C@@H]4CC[C@]5(O)[C@@H](O)[C@@H](O)C[C@@H](O)[C@]5(C)[C@H]4CC[C@]3(C)[C@H]1[C@@H]2C [RANMOGENIN A]
inhibition at 50 µM (NUGC): 80%

C=C1CC[C@@]2(OC1)O[C@H]1C[C@H]3[C@@H]4CC[C@]5(O)C[C@@H](OC(C)=O)[C@@H](OC(C)=O)[C@@H](OC(C)=O)[C@]5(C)[C@H]4CC[C@]3(C)[C@H]1[C@@H]2C [TUPICHIGENIN AA]
inhibition at 50 µM (NUGC): 50%

C=C1CC[C@@]2(OC1)O[C@H]1C[C@H]3[C@@H]4CC[C@]5(O)C[C@@H](O)[C@@H](OC(C)=O)[C@@H](OC(C)=O)[C@]5(C)[C@H]4CC[C@]3(C)[C@H]1[C@@H]2C [TUPICHIGENIN AC]
inhibition at 50 µM (NUGC): 40%

C=C1CC[C@@]2(OC1)O[C@H]1C[C@H]3[C@@H]4CC[C@]5(O)C[C@@H](O)[C@@H](O)[C@@H](O)[C@]5(C)[C@H]4CC[C@]3(C)[C@H]1[C@@H]2C [TUPICHIGENIN A]
inhibition at 50 µM (NUGC): 42%

CC(=O)C1=CC[C@H]2[C@@H]3CC=C4C[C@H](O)C[C@@H](O)[C@]4(C)[C@H]3CC[C@]12C [TUPIPREGNENOLONE]
inhibition at 50 µM (NUGC): 25%

Oc1ccc([C@H]2CCc3ccc(O)cc3O2)cc1 [TUPICHINOL C]
inhibition at 50 µM [1]: 50%

C=C1CC[C@@]2(OC1)O[C@H]1C[C@H]3[C@@H]4CC[C@]5(O)[C@@H](O)[C@@H](O)[C@@H](O)[C@@H](O)[C@]5(C)[C@H]4CC[C@]3(C)[C@H]1[C@@H]2C
inhibition at 50 µM [1]: 100% | inhibition at 50 µM (NUGC): 100%

COc1ccc2c(c1C)O[C@H](c1ccc(O)cc1)[C@H](O)C2 [TUPICHINOL A]
inhibition at 50 µM (NUGC): 30%
